The values below come from US20150218212A1, “FLUORINATED EPOXYKETONE-BASED TETRAPEPTIDE COMPOUNDS AND USES THEREOF AS PROTEASOME INHIBITORS” (FLUORINOV PHARMA INC., priority 2012, published 2015).

Like-named read-outs stand apart in the source and are kept apart here. Where only a bound is given, the exact number is not on record here.

The target in experiment [1] is T1, proteasome Chymotrypsin-like (CT-L) activity (Mus musculus, UniProt O09061+O55234).
T1 construct: RBCs were lysed with assay lysis buffer and incubated on ice for 30 minutes; from tissue; host or cells: red blood cells of NOD/SCID mice
The experiment is described as follows: Pharmacodynamic proteasome activity in murine red blood cells, CT-L. It counts as in vivo, NOD/SCID mice. The note with it: iv, mice, 2 mg/kg i.v. The method, then: Cells were harvested by centrifugation at 1,200 rpm at room temperature. Cell pellets were washed with PBS (phosphate buffered saline) and lysed with assay lysis buffer (50 mM HEPES (N-2-hydroxyethylpiperazine-N′-2-ethanesulfonic acid), pH 7.5; 150 mM NaCl; 1% Triton X-100; 2 mM ATP). Cell lysates were incubated on ice for 30 minutes, mixed by vortex every 5 minutes, and then centrifuged at 12,000 g for 10 minutes. The supernatant was transferred to a 96-well plate. For each assay, 10 μg of total protein were incubated for 1 hour at 37° C. with increasing concentrations (1 nM to 10 μM) of test compound diluted in assay buffer (50 mM tris-HCl (tris(hydroxymethyl)aminomethane-HCl), pH 7.5; 150 mM NaCl). DMSO alone was used as a control in every assay plate. After incubation, a specific fluorogenic proteasome substrate was added to each assay reaction at a final concentration of 40 μM in a total volume of 100 μL. N-Succinyl-Leu-Leu-Val-Tyr-7-amino-4-methylcoumarin (Suc-Leu-Leu-Val-Tyr-AMC) was used for measuring chymotrypsin-like (CT-L) activity, t-butoxycarbonyl-Leu-Arg-Arg-7-amino-4-methylcoumarin (Boc-Leu-Arg-Arg-AMC) for trypsin-like (T-L) activity, and benzyloxycarbonyl-L-leucyl-L-leucyl-L-glutamyl-7-amino-4-methylcoumarin (Z-Leu-Leu-Glu-AMC) for caspase-like (C-L) activity. The excitation wavelength was set at 360 nm and the fluorescence emission wavelength of AMC was detected at 460 nm. The fluorescence of free AMC released during the enzymatic reaction was measured with a SpectraMax M5 fluorescent spectrophotometric plate reader (Molecular Devices, Sunnyvale, Calif.). AMC release rate was measured at 37° C. in a kinetic mode, recording every 5 minutes for 30 minutes. Experiments were performed in triplicate and repeated at least twice.
All mouse experiments were performed in accordance with approval from the Ontario Cancer Institute institutional animal review board. Five- to six-week-old male non-obese diabetic/severe combined immunodeficient (NOD/SCID) mice were grouped randomly (n=3 mice per group). Mice were administered vehicle (5% DMSO, 20% Cremophor) or compounds of Formula I at different doses either intravenously or by oral gavage, and venous blood samples (20-50 μL) were collected from each mouse over 24 hours. Blood samples were mixed with heparin (APP Pharmaceuticals; Schaumburg, Ill.) in 0.5 mL tubes in accordance with the manufacturer's instructions. After centrifugal separation at 3,000 g for 10 minutes, red blood cells (RBCs) in the bottom layer were transferred into a new tube and stored at −70° C. until use. RBCs were lysed with assay lysis buffer and incubated on ice for 30 minutes, mixing by vortex every 5 minutes, and then centrifuged at 12,000 g for 10 minutes. The supernatant was transferred to a 96-well plate and proteasome activity was measured as described above for tumor cell lysates.
Proteasome subunit activity (Chymotrypsin-like, Trypsin-like, Caspase-like, CT-L, T-L, C-L, respectively) were monitored over the course of 24 hrs following […] administration of representative compounds of Formula I. NOD/SCID mice were treated with compounds of Formula I (2 mg/kg by iv administration) or vehicle control and carfilzomib for up to 24 hours, as described above. Table 9 summarizes the data on pharmacodynamic activity of representative compounds of Formula I following a dose of 2 mg/kg intravenous (i.v) administration to mice. Data are presented as mean residual activity (SEM) relative to vehicle treated controls.

Another experiment concerns A549/ATCC. Kind of experiment: NCI screening panel, A549/ATCC (Non-Small Cell Lung Cancer). It counts as cell-based, human. The method, then:
Representative compounds of Formula I were screened using the National Cancer Institute (NCI) screening panel, which consists of a panel of human tumor cell lines, representing leukemia, melanoma, and cancers of the lung, colon, ovary, breast, prostate and renal system.
After 24 h, two plates of each cell line are fixed in situ with TCA, to represent a measurement of the cell population for each cell line at the time of drug addition (Tz). Experimental drugs are solubilised in dimethyl sulfoxide at 400-fold the desired final maximum test concentration and stored frozen prior to use. At the time of drug addition, an aliquot of frozen concentrate is thawed and diluted to twice the desired final maximum test concentration with complete medium containing 50 μg/mL gentamicin. Additional four, 10-fold or ½ log serial dilutions are made to provide a total of five drug concentrations plus control. Aliquots of 100 μl of these different drug dilutions are added to the appropriate microtiter wells already containing 100 μl of medium, resulting in the required final drug concentrations.
Following drug addition, the plates are incubated for an additional 48 h at 37° C., 5% CO2, 95% air, and 100% relative humidity. For adherent cells, the assay is terminated by the addition of cold TCA (trichloroacetic acid). Cells are fixed in situ by the gentle addition of 50 μl of cold 50% (w/v) TCA (final concentration, 10% TCA) and incubated for 60 minutes at 4° C. The supernatant is discarded, and the plates are washed five times with tap water and air dried. Sulforhodamine B (SRB) solution (100 μl) at 0.4% (w/v) in 1% acetic acid is added to each well, and plates are incubated for 10 minutes at room temperature. After staining, unbound dye is removed by washing five times with 1% acetic acid and the plates are air dried. Bound stain is subsequently solubilised with 10 mM trizma base, and the absorbance is read on an automated plate reader at a wavelength of 515 nm. For suspension cells, the methodology is the same except that the assay is terminated by fixing settled cells at the bottom of the wells by gently adding 50 μl of 80% TCA (final concentration, 16% TCA). Using the seven absorbance measurements [time zero, (Tz), control growth, (C), and test growth in the presence of drug at the five concentration levels (Ti)], the percentage growth is calculated at each of the drug concentrations levels. Percentage growth inhibition is calculated as: [(Ti−Tz)/(C−Tz)]×100 for concentrations for which Ti>/=Tz and [(Ti−Tz)/Tz]×100 for concentrations for which Ti<Tz.
Three dose response parameters are calculated for each experimental agent. Growth inhibition of 50% (GI50) is calculated from [(Ti−Tz)/(C−Tz)]×100=50, which is the drug concentration resulting in a 50% reduction in the net protein increase (as measured by SRB staining) in control cells during the drug incubation. The drug concentration resulting in total growth inhibition (TGI) is calculated from Ti=Tz. The LC50 (concentration of drug resulting in a 50% reduction in the measured protein at the end of the drug treatment as compared to that at the beginning) indicating a net loss of cells following treatment is calculated from [(Ti−Tz)/Tz]×100=−50. Values are calculated for each of these three parameters if the level of activity is reached. However, if the effect is not reached or is exceeded, the value for that parameter is expressed as greater or less than the maximum or minimum concentration tested.

The mark [2] stands for this setting: 30 min, read-out: Chymotrypsin-like (CT-L) mean residual activity relative to vehicle treated controls.
Where [3] appears, read: 24 hrs, read-out: Chymotrypsin-like (CT-L) mean residual activity relative to vehicle treated controls.
Setting [4] is: time 0, read-out: Chymotrypsin-like (CT-L) mean residual activity relative to vehicle treated controls.

On to `CC(C)C[C@H](NC(=O)[C@H](COC(F)F)NC(=O)CN1CCOCC1)C(=O)N[C@@H](COC(F)F)C(=O)N[C@@H](CC(C)C)C(=O)[C@@]1(C)CO1` [Example 1, (2S)—N-[(1S)-1-(difluoromethoxymethyl)-2-[[(1S)-3-methyl-1-[(2R)-2-methyloxirane-2-carbonyl]butyl]amino]-2-oxo-ethyl]-2-[[(2S)-3-(difluoromethoxy)-2-[(2-morpholinoacetyl)amino]propanoyl]amino]-4-methyl-pentanamide], for which the remaining activity at 2 mg/kg in experiment [1] (setting [2]) worked out at 20%. Moreover, in experiment [1] (setting [3]), the remaining activity at 2 mg/kg came out at 21%. Besides, the remaining activity at 2 mg/kg in experiment [1] (setting [4]) came out at 100%. Moreover, in the experiment on A549/ATCC, the Log10GI50 was −7.46, the Log10LC50 was more than −4.00 and the Log10TGI50 is given as −5.49.

As to `CC(C)C[C@H](NC(=O)[C@H](COC(F)F)NC(=O)CN1CCOCC1)C(=O)N[C@@H](Cc1ccccc1)C(=O)N[C@@H](CC(C)C)C(=O)[C@@]1(C)CO1` [Example 2, (2S)-N-[(1S)-1-benzyl-2-[[(1S)-3-methyl-1-[(2R)-2-methyloxirane-2-carbonyl]butyl]-amino]-2-oxo-ethyl]-2-[[(2S)-3-(difluoromethoxy)-2-[(2-morpholinoacetyl)amino]propanoyl]amino]-4-methyl-pentanamide], the results for the remaining activity at 2 mg/kg in experiment [1] (setting [2]), in experiment [1] (setting [3]) and in experiment [1] (setting [4]) were 29%, 24% and 100%, respectively. Further, the Log10GI50 with A549/ATCC is −7.52. This molecule came in with a Log10LC50 in the experiment with A549/ATCC of more than −4.00. The molecule also came in with a Log10TGI50 in the experiment on A549/ATCC of −5.93.

Take `CC(C)C[C@H](NC(=O)[C@H](COC(F)F)NC(=O)CN1CCOCC1)C(=O)N[C@@H](Cc1ccccc1)C(=O)N[C@@H](Cc1ccccc1)C(=O)[C@@]1(C)CO1` [Example 3, (2S)-N-[(1S)-1-benzyl-2-[[(1S)-1-benzyl-2-[(2R)-2-methyloxiran-2-yl]-2-oxo-ethyl]amino]-2-oxo-ethyl]-2-[[(2S)-3-(difluoromethoxy)-2-[(2-morpholinoacetyl)-amino]propanoyl]amino]-4-methyl-pentan-amide]: the remaining activity at 2 mg/kg in experiment [1] (setting [2]) was found to be 29%. In experiment [1] (setting [3]), the remaining activity at 2 mg/kg is 31%. Also, the remaining activity at 2 mg/kg in experiment [1] (setting [4]) was 100%. Besides, in the experiment with A549/ATCC, the Log10GI50 is reported as −7.65, the Log10LC50 is more than −4.00 and the Log10TGI50 is given as more than −4.00.

`CC(C)C[C@H](NC(=O)[C@H](COC(F)F)NC(=O)CN1CCOCC1)C(=O)N[C@@H](COC(F)F)C(=O)N[C@@H](Cc1ccccc1)C(=O)[C@@]1(C)CO1` [Example 4, (2S)-N-[(1S)-2-[[(1S)-1-benzyl-2-[(2R)-2-methyloxiran-2-yl]-2-oxo-ethyl]amino]-1-(difluoromethoxymethyl)-2-oxo-ethyl]-2-[[(2S)-3-(difluoromethoxy)-2-[(2-mor-pholinoacetyl)amino]propanoyl]amino]-4 methyl-pentanamide]: the remaining activity at 2 mg/kg in experiment [1] (setting [2]) came to 34%. The remaining activity at 2 mg/kg in experiment [1] (setting [3]) stood at 37%. In experiment [1] (setting [4]), the remaining activity at 2 mg/kg stood at 100%. For the same molecule, in the experiment on A549/ATCC, the Log10GI50 is recorded as −7.38, the Log10LC50 is more than −4.00 and the Log10TGI50 was −4.55.

Regarding `CC(C)C[C@H](NC(=O)[C@H](COC(F)F)NC(=O)[C@H](COC(F)F)NC(=O)[C@H](CCc1ccccc1)NC(=O)CN1CCOCC1)C(=O)[C@@]1(C)CO1` [Example 7, (2S)-N-[(1S)-1-(difluoromethoxymethyl)-2-[[(1S)-1-(difluoromethoxymethyl)-2-[[(1S)-3-methyl-1-[(2R)-2-methyloxirane-2-carbo-nyl]butyl]amino]-2-oxo-ethyl]amino]-2-oxo-ethyl]-2-[(2-morpholinoacetyl)amino]-4-phenyl-butanamide], the remaining activity at 2 mg/kg is 35% in experiment [1] (setting [2]), 30% in experiment [1] (setting [3]) and 100% in experiment [1] (setting [4]). In the experiment with A549/ATCC, the Log10GI50 is on record as −7.43. In the experiment on A549/ATCC, this molecule had a Log10LC50 of more than −4.00. In addition, the Log10TGI50 in the experiment with A549/ATCC is listed as more than −4.00.

For the molecule `CC(C)C[C@H](NC(=O)[C@H](Cc1ccccc1)NC(=O)[C@H](COC(F)F)NC(=O)[C@H](COC(F)F)NC(=O)CN1CCOCC1)C(=O)[C@@]1(C)CO1` [Example 11, (2S)-2-[[(2S)-3-(difluoromethoxy)-2-[[(2S)-3-(difluoromethoxy)-2-[(2-morpholinoacetyl)-amino]propanoyl]amino]propanoyl]amino]-N-[(1S)-3-methyl-1-[(2R)-2-methyloxirane-2-carbonyl]butyl]-3-phenyl-propanamide], the remaining activity at 2 mg/kg worked out at 30% in experiment [1] (setting [2]), 28% in experiment [1] (setting [3]) and 100% in experiment [1] (setting [4]). Also, the Log10GI50 in the experiment on A549/ATCC is listed as −7.40. This molecule also had a Log10TGI50 in the experiment on A549/ATCC of more than −4.00.
